These are literature values, as cited in EP0396201A1 (priority 1989, dated 1990).

The structures appear in SMILES notation.

This data set deals with carbonic anhydrase. Conditions: carbonic anhydrase inhibitor, relative activity.

Take `CC(=O)Nc1nnc(S(N)(=O)=O)s1` [Acetazolamide]: the “times as active as p-aminobenzenesulfonamide” value is on record as approximately 330.
